Data: patent US20140329832A1, “METABOLIC DEGRADATION INHIBITORS FOR ANTI-HYPERPROLIFERATIVE AGENTS” (CHILDRENS HOSPITAL LOS ANGELES, priority 2007, published 2014)

Key:
in vivo = settings: nude (nu/nu), mouse, 180 mg/kg/day
Protocol: The fluconazole dose approximately corresponded to a human equivalent dose of 100 mg/day for a 70 kg human. […] These doses are within the standard range of human treatment doses for both of these antifungal agents. Animals were sacrificed four hours after the last drug dosing and levels of fenretinide measured in the plasma by a HPLC methodology.

[1] = Effect of various dosages of ketoconazole on fenretinide levels in mouse plasma (Example 3, HPLC); format: in vivo; settings: NOD/SCID mice; ketoconazole 37, 75 or 150 mg/kg/day, nine doses, starting two days prior to fenretinide 180 mg/kg/day, five doses; all dose levels, P<0.05
From the text: Animals were sacrificed four hours after the last drug dosing and levels of fenretinide measured in the blood plasma by a HPLC methodology.

[2] = nude mice bearing SMS-KCNR xenografts; ketoconazole 50 mg/kg/day, nine doses, starting two days prior to fenretinide 180 mg/kg/day, five doses

| concentration at 4 h (in vivo) [µM] | effect on mean fenretinide level in plasma compared to controls [1] | effect on fenretinide levels in tumor tissue [2] | SMILES |
| --- | --- | --- | --- |
| 12.6 | – | – | CC1=C(/C=C/C(C)=C/C=C/C(C)=C/C(=O)Nc2ccc(O)cc2)C(C)(C)CCC1 [fenretinide, N-(4-hydrophenyl) retinamide] |
| – | significantly increased | increased | CC(=O)N1CCN(c2ccc(OCC3COC(Cn4ccnc4)(c4ccc(Cl)cc4Cl)O3)cc2)CC1 (stereo not drawn) [ketoconazole] |
